Patent publication US5804601A, “Aromatic hydroxamic acid compounds, their production and use” (Takeda Chemical Industries, Ltd., priority 1995, dated 1998)

Test system: rat mixed cerebral cell culture
Experiment: Neutralizing effect on LPS-induced cytotoxicity in a rat mixed cerebral cell culture system (LIC assay), MTT method
Format: cell-based
Details: concentration giving a recovery rate of 50%, usually 4-5 days incubation, read-out: ED50 (the source's name)
Experimental: Neutralizing effect on lipopolysaccharide (LPS)--induced cytotoxicity in a rat mixed cerebral cell culture system (LIC assay)
LPS, a substance known to activate glial cells (astrocytes, microglia), was added to a rat mixed cerebral cell culture system and the compounds which would neutralize the cytotoxicity induced by LPS were screened by the following method.
(1) Neonatal rat mixed cerebral cell culture
From neonatal Crj:CD (SD) rats (1-3 days old, Charles-River Japan, Ltd.), the brains were isolated and placed in ice-cold D-MEM/10% FCS (Dulbecco's cell culture minimal essential medium supplemented with 10% of fetal calf serum, 100 units/ml of penicillin and 100 μg/ml of streptomycin). Then, mixed cerebral cell cultures were carried out in the following steps.
1. The cerebrums were separated from the enucleated brains and the meninges was removed under the stereoscopic microscope.
2. The cerebrums were placed in a nylon-mesh (100-200 μm) bag to filter with the aid of a rubber policeman.
3. Using ice-cold D-MEM/10% FCS, the cells were washed 3 times (1000 rpm, 8 min.). Then, this cell suspension was filtered through a cell strainer (40 μm mesh, Falcon 2340) and the number of viable cells was counted by the trypan blue method.
4. The cells, were seeded in wells of a 96-well microtiter plate (Nunc) at a cell density of 1×10^5 cells/100 μl/well, and started a cell culture at 37° C.
5. One week later, 100 μl/well of D-MEM/10% FCS was added.
6. The plate was further incubated for about 1-2 weeks and the neutralizing activity of the test compound was evaluated by the following method.
(2) Evaluation of neutralizing activity in LPS-induced cytotoxicity
1. Following the rat mixed cerebral cell culture described in (1) (after 2-3 weeks of incubation), the medium was discarded from the respective wells of the 96-well microtiter plate, and 50 μl/well of fresh D-MEM/2% FCS was added.
2. A test sample and LPS (Difco, E. coli 011: B4, Bacto) of a suitable concentration, 25 μl each per well, were respectively added. D-MEM/2% FCS was used as the medium.
As the test sample, each of the compounds shown in Table 32 was dissolved in DMSO at a concentration of 10 ^-2 M and the solution was diluted with D-MEM/2% FCS and submitted for assay.
3. After a suitable period (usually 4-5 days) of incubation, the degree of cytotoxic effect was assessed by the microscopic observation, and MTT method.
(3) MTT [3-(4,5-dimethylthiazol-2-yl)-2,5-diphenyltetra zolium bromide] method
Ten μl of MTT solution (5 mg/ml, Sigma) dissolved in phosphate-buffered saline was added to each well. After 4-6 hours of incubation (37° C., under 10% CO2), 100 μl/well of 0.01N-hydrochloric acid containing 10% SDS was added, whereby the formed formazan was dissolved. After complete dissolution, the absorbance (540-590 nm) was measured for each well.
The ED50 values were determined by calculating the recovery rates by means of the following equation and plotting the concentrations of compounds giving a recovery rate of 50% on graph paper.
Recovery rate (%)=(C-B)×100/(A-B)
[A: the absorbance at 550 nm of the control well to which only the medium had been added
B: the absorbance at 550 nm of the well to which LPS had been added
C: the absorbance at 550 nm of the well to which both LPS and the test compound had been added]

SMILES	EC50 [nM]
O=C(CCCCCCc1ccc2ccccc2n1)NO [Compound 1-3, 7-(2-quinolyl)heptanohydroxamic acid]	20
O=C(CCCC/C=C\c1ccc2ccccc2n1)NO [Compound 1-4, (Z)-7-(2-quinolyl)-6-heptenohydroxamic acid]	40
N#CC(CCCCCC(=O)NO)c1cccc2ccccc12 (centres unmarked) [Compound 3-2, 7-Cyano-7-(1-naphthyl)heptanohydroxamic acid]	30
COc1ccc(C(CCCCC(=O)NOC(C)=O)C2=C(C)C(=O)c3ccccc3C2=O)cc1 (centres unmarked) [Compound 7-1, O-Acetyl-6-(4-methoxyphenyl)-6-(3-methyl-1,4-naphthoquinon-2-yl)hexanohydroxamic acid]	50
CC(=O)ONC(=O)CCCCCC(C1=C(C)C(=O)C(C)=C(C)C1=O)c1ccccc1 (centres unmarked) [Compound 7-2, O-acetyl-7-(3,5,6-trimethylbenzoquinon-2-yl)-7-phenylheptanohydroxamic acid]	50
CC(=O)ONC(=O)CCCCCCc1ccc2ccccc2c1O [Compound 7-3, O-acetyl-7-(1-hydroxy-2-naphthyl)heptano-hydroxamic acid]	400
CC(=O)ONC(=O)CCCCCc1ccc2ccccc2n1 [Compound 7-4, O-acetyl-6-(2-quinolyl)hexanohydroxamic acid]	400
CCC(=O)ONC(=O)CCCCCC(C1=C(C)C(=O)C(C)=C(C)C1=O)c1ccccc1 (centres unmarked) [Compound 7-5, O-propionyl-7-(3,5,6-trimethylbenzoquinon-2-yl)-7-phenylheptanohydroxamic acid]	50
CCC(=O)ONC(=O)CCCCC(C1=C(C)C(=O)c2ccccc2C1=O)c1ccc(OC)cc1 (centres unmarked) [Compound 7-6, O-propionyl-6-(4-methoxyphenyl)-6-(3-methyl-1,4-naphthoquinon-2-yl)hexanohydroxamic acid]	50
CCC(=O)ONC(=O)CCCCCc1ccc2ccccc2n1 [Compound 7-7, O-propionyl-6-(2-quinolyl)hexanohydroxamic acid]	500
CCC(=O)ONC(=O)CCCCCC(C#N)c1cccc2ccccc12 (centres unmarked) [Compound 7-8, O-propionyl-7-cyano-7-(1-naphthyl)heptanohydroxamic acid]	30
CC1=C(C)C(=O)C(C(CCCCCC(=O)NOC(=O)CC(C)C)c2ccccc2)=C(C)C1=O (centres unmarked) [Compound 7-9, O-isovaleryl-7-(3,5,6-trimethylbenzoquinon-2-yl)-7-phenylheptanohydroxamicacid]	200
COc1ccc(C(CCCCC(=O)NOC(=O)C(C)C)C2=C(C)C(=O)c3ccccc3C2=O)cc1 (centres unmarked) [Compound 7-10, O-isobutyryl-6-(4-methoxyphenyl)-6-(3-methyl-1,4-naphthoquinon-2-yl)hexanohydroxamic acid]	300
CC1=C(C)C(=O)C(C(CCCCCC(=O)NOC(=O)C(C)C)c2ccccc2)=C(C)C1=O (centres unmarked) [Compound 7-11, O-isobutyryl-7-(3,5,6-trimethylbenzoquinon-2-yl)-7-phenylheptanohydroxamicacid]	200
N#CC(CCCCCC(=O)NOC(=O)c1ccccc1)c1cccc2ccccc12 (centres unmarked) [Compound 7-12, O-benzoyl-7-cyano-7-(1-naphthyl)heptano-hydroxamic acid]	30
N#CC(CCCCC(=O)NOC(=O)c1ccccc1)c1cccc2ccccc12 (centres unmarked) [Compound 7-13, O-benzoyl-6-cyano-6-(1-naphthyl)hexanohyroxamic acid]	50
COc1ccc(C(CCCCC(=O)NOC(=O)c2ccccc2)C2=C(C)C(=O)c3ccccc3C2=O)cc1 (centres unmarked) [Compound 7-14, O-benzoyl-6-(4-me-Ehoxyphenyl)-6-(3-methyl-1,4-naphthoquinon-2-yl)hexanohydroxamic acid]	200
CC1=C(C)C(=O)C(C(CCCCCC(=O)NOC(=O)c2ccccc2)c2ccccc2)=C(C)C1=O (centres unmarked) [Compound 7-15, O-benzoyl-7-(3,5,6-trimethylbenzoquinon-2-yl)-7-phenylheptanohydroxamic acid]	500
O=C(CCCCCc1ccc2ccccc2n1)NOC(=O)c1ccccc1 [Compound 7-16, O-benzoyl-6-(2-quinolyl)hexanohydroxamic acid]	300
CC1=C(C)C(=O)C(C(CCCCCC(=O)NOC(=O)C(C)(C)C)c2ccccc2)=C(C)C1=O (centres unmarked) [Compound 7-17, O-pivaloyl-7-(3,5,6-trimethylbenzoquinon-2-yl)-7-phenylheptanohydroxamic acid]	200
CC1=C(C(CCCCC(=O)NO)c2ccc(F)cc2)C(=O)c2ccccc2C1=O (centres unmarked) [Compound B, 6-(4-Fluorophenyl)-6-(3-methyl-1,4-naphtho-quinon-2-yl)hexanohydroxamic acid]	500
CC1=C(C)C(=O)C(C(CCCCCC(=O)NO)c2ccccc2)=C(C)C1=O (centres unmarked) [Compound C, 7-(3,5,6-Trimethyl-1,4-benzoquinon-2-yl)-7-phenylheptanohydroxamic acid]	300
CC1=C(C)C(=O)C(C(CCCCCC(=O)NO)c2ccc(C)cc2)=C(C)C1=O (centres unmarked) [Compound D, 7-(3,5,6-Trimethyl-1,4-benzoquinon-2-yl)-7-(4-methylphenyl)heptanohydroxamic acid]	100
CC1=C(C)C(=O)C(C(CCCCCC(=O)NO)c2ccc(F)cc2)=C(C)C1=O (centres unmarked) [Compound E, 7-(4-Fluorophenyl)-7-(3,5,6-trimethyl-1,4-benzoquinon-2-yl)heptanohydroxamic acid]	600
O=C(CCCCCC(c1ccccc1)c1ccc2ccccc2c1O)NO (centres unmarked) [Reference Example 46-1, 7-(1-Hydroxy-2-naphthyl)-7-phenylheptanohydroxamic acid]	50
O=C(CCCCCc1ccc2ccccc2c1O)NO [Reference Example 46-2, 6-(1-Hydroxy-2-naphthyl)hexanohydroxamic acid]	500
